# Source: patent publication EP0363041A1 (priority 1988, dated 1990)
# Several values for one entry are separate records, joined by “and”; a condition that tells them apart may be missing. Identical values can stand only once. Like-named read-outs stand apart in the source and are kept apart here.
# How the values were obtained:
# Assay type in all cases: binding, mouse
# MO-4 = tested on: MO-4
# MO-6 = tested on: MO-6
# MO-5 = tested on: MO-5
# [1] = tested on: "antibody carrier" (monoclonal antibody of MO-3 strain); assay: Latex agglutination assay: competition with "normorphine carrier" for "antibody carrier"
# MO-3 = tested on: MO-3
# MO-2 = tested on: MO-2
SMILES,"reactivity ratio with morphine, MO-4 (MO-4)","reactivity ratio with morphine, MO-6 (MO-6)","reactivity ratio with morphine, MO-5 (MO-5)",time at which polystyrene latex particles were observed to be agglutinated [1],"reactivity ratio with morphine, MO-3 (MO-3)","reactivity ratio with morphine, MO-2 (MO-2)","time at which polystyrene latex particles were observed to be agglutinated ([1]; 0.3 ppm in urine of healthy men, normorphine carrier of Example 5, 0 ppm gives 16 seconds)","time at which polystyrene latex particles were observed to be agglutinated ([1]; 0.3 ppm in urine of healthy men, normorphine carrier of Example 6, 0 ppm gives 13 seconds)"
"COC(=O)[C@H]1[C@@H](OC(=O)c2ccccc2)C[C@@H]2CC[C@H]1N2C [Cocaine, cocaine]",< 0.001,< 0.1,< 0.001,16 s and 13 s,< 0.001,< 1.0,–,–
"COc1ccc2c3c1O[C@H]1[C@@H](O)C=C[C@H]4[C@@H](C2)N(C)CC[C@@]341 [Codeine, codeine]",< 0.1,< 0.1,< 0.1,–,< 0.1,< 1.0,–,–
"CCOc1ccc2c3c1O[C@H]1[C@@H](O)C=C[C@H]4[C@@H](C2)N(C)CC[C@@]341 [Ethylmorphine, ethylmorphine]",< 0.01,< 0.1,< 0.01,–,< 0.01,< 1.0,16 s,13 s
"CN1CC[C@]23c4c5ccc(O[C@@H]6O[C@H](C(=O)O)[C@@H](O)[C@H](O)[C@H]6O)c4O[C@H]2[C@@H](O)C=C[C@H]3[C@H]1C5 [M - 3 - G, morphine-3-glucronide]",0.2,0.3,0.5,–,0.1,2.0,–,–
"CN1CC[C@]23c4c5ccc(O)c4O[C@H]2[C@@H](O[C@@H]2O[C@H](C(=O)O)[C@@H](O)[C@H](O)[C@H]2O)C=C[C@H]3[C@H]1C5 [M - 6 - G, morphine-6-glucronide]",0.9,1.0,0.9,–,0.6,440,–,–
"CCC(=O)C(CC(C)N(C)C)(c1ccccc1)c1ccccc1 (centres unmarked) [Methadone, methadone]",< 0.001,< 0.1,< 0.001,–,< 0.001,< 1.0,–,–
"CN1CC[C@]23c4c5ccc(O)c4O[C@H]2[C@@H](O)C=C[C@H]3[C@H]1C5 [Morphine, morphine]",100,100,100,–,100,100,–,–
